In article PMC3402541, “Guanidylation and Tail Effects in Cationic Antimicrobial Lipopeptoids” (PLoS ONE, 2012):
≈ marks a conversion by molar mass, not a printed value. Where a SMILES comes first, the peptide text is derived from it. [ ]: non-standard residue; d: D form. The star is where a group is joined. Arachidoyl = CCCCCCCCCCCCCCCCCCCC(=O)*; Nlys = NCCCCNCC(=O)O

Key:
S.aureus ATCC 29213 = format: cell-based, Staphylococcus aureus; settings: ATCC 29213, 24 h
Method: (§1) Antimicrobial activity of the purified lipopeptoids was determined without replication against a panel of clinically relevant and standard reference bacterial strains according to CLSI macrobroth standards. Stock solutions at 512 µg/mL were prepared in water, with DMSO as needed, and testing was performed in glass test tubes using Muller-Hinton broth and bacteria adjusted to 5 × 10^5 CFU/mL. Bacteria were incubated with the lipopeptoid of interest for 24 hr at 37°C prior to reading.
(§2) The bacteria Staphylococcus aureus ATCC 29213, methicillin-resistant S. aureus ATCC 33592, Staphylococcus epidermidis ATCC 14990, Enterococcus faecalis ATCC 29212, E. faecium ATCC 27270, Streptococcus pneumoniae ATCC 49619, Escherichia coli ATCC 25922, Pseudomonas aeruginosa ATCC 27853, and Klebsiella pneumoniae ATCC 13883 were acquired from the American Type Culture Collection (ATCC) and used as quality controls. The clinical strains methicillin-resistant S. epidermidis (MRSE) CAN-ICU 61589, E. coli CAN-ICU 61714, E. coli CAN-ICU 63074, P. aeruginosa CAN-ICU 62308, Stenotrophomonas maltophilia CAN-ICU 62584, Acinetobacter baumannii CAN-ICU 63169 were obtained from hospitals across Canada as part of the CAN-ICU studies, while methicillin-susceptible S. epidermidis (MSSE) 81388 was obtained from the 2008 CANWARD study.
(§3) After subculturing the relevant bacteria twice from frozen stock, in vitro activities of the antimicrobials were determined by macrobroth dilution methodology in accordance with the Clinical and Laboratory Standards Institute (CLSI) guidelines (3). The MICs were determined using glass test tubes (2 mL/tube) containing doubling antimicrobial dilutions of cation adjusted Mueller-Hinton broth inoculated to achieve a final concentration of approximately 5 x 10^5 CFU/mL, incubated in ambient air for 24 hr prior to reading. Colony counts were performed periodically to confirm inocula. The ATCC organisms […] ATCC 49619, Staphylococcus aureus ATCC 29213, Enterococcus faecalis ATCC 29212, Escherichia coli ATCC 25922, and Pseudomonas aeruginosa ATCC 27853 were used as quality control and to allow easy comparison to previously tested antimicrobials. Each test in this series was performed without replication. In our experience with cationic amphiphiles the results are accurate to within a single doubling.

MRSA ATCC 33592 = format: cell-based, methicillin-resistant S. aureus; settings: ATCC 33592, 24 h
Method: as §1, §2, §3

MSSE 81388 CANWARD 2008 = format: cell-based, methicillin-susceptible S. epidermidis; settings: 24 h
Method: as §1, §2, §3

MRSE CAN-ICU 61589 = format: cell-based, methicillin-resistant S. epidermidis; settings: CAN-ICU 61589, 24 h
Method: as §1, §2, §3

E. faecalis ATCC 29212 = format: cell-based, Enterococcus faecalis; settings: ATCC 29212, 24 h
Method: as §1, §2, §3

S.pneumoniae ATCC 49619 = format: cell-based, Streptococcus pneumoniae; settings: ATCC 49619, 24 h
Method: as §1, §2, §3

P.aeruginosa ATCC 27853 = format: cell-based, Pseudomonas aeruginosa; settings: ATCC 27853, 24 h
Method: as §1, §2, §3

[1] = test system: P.aeruginosa CAN-ICU 62308; format: cell-based, Pseudomonas aeruginosa; settings: CAN-ICU 62308, 24 h
Method: as §1, §2, §3

[2] = test system: S. maltophilia CAN-ICU 62584; format: cell-based, Stenotrophomonas maltophilia; settings: CAN-ICU 62584, 24 h
Method: as §1, §2, §3

[3] = test system: A. baumannii CAN-ICU 63169; format: cell-based, Acinetobacter baumannii; settings: CAN-ICU 63169, 24 h
Method: as §1, §2, §3

K.pneumoniae ATCC 13883 = format: cell-based, Klebsiella pneumoniae; settings: ATCC 13883, 24 h
Method: as §1, §2, §3

ovine erythrocytes = experiment: Haemolytic assay; format: cell-based, sheep; settings: ovine erythrocytes in Tris buffered saline, 30 minutes, absorbance of supernatant at 540 nm
Method: Mammalian cell toxicity was determined by measuring lysis of ovine erythrocytes, a standard model for human cell toxicity. Cells were prewashed with Tris buffered saline and then incubated with a variety of lipopeptoid concentrations for 30 minutes. Following centrifugation, lysis was evaluated by testing the absorbance of the solution at 540 nm, with 0.5% NH4OH used as a positive control.
Toxicity to mammalian cells was determined using a sheep red blood cell (erythrocyte) haemolytic assay (4). Erythrocytes were washed and resuspended in Tris buffered saline prior to use, at a concentration of 1.46 - 4.5 x 10^9 cells/mL (on average 3.08 x 10^9 cells/mL). The cell suspension was diluted with varying concentrations of antimicrobials, from 50 μg/mL to 1 mg/mL and incubated for thirty minutes (final erythrocyte concentration 4.08 x 10^8 cells/mL). The samples were centrifuged following treatment and the absorbance of the supernatant was measured at 540 nm. A solution of 0.5% […] was used as a positive control, with normal buffered solution as the negative control. The toxicity was assessed as a function of percent haemolysis.

E.coli ATCC 25922 = format: cell-based, Escherichia coli; settings: ATCC 25922, 24 h
Method: as §1, §2, §3

E.coli CAN-ICU 61714 = format: cell-based, Escherichia coli; settings: CAN-ICU 61714, 24 h
Method: as §1, §2, §3

E.coli CAN-ICU 63074 = format: cell-based, Escherichia coli; settings: CAN-ICU 63074, 24 h
Method: as §1, §2, §3

E. faecium ATCC 27270 = format: cell-based; settings: ATCC 27270, 24 h
Method: as §1, §2, §3

Row | Compound | MIC S.aureus (S.aureus ATCC 29213) [mg/L] | MIC S.aureus in the presence of 4% bovine serum albumin (S.aureus ATCC 29213) [mg/L] | MIC MRSA (MRSA ATCC 33592) [mg/L] | MIC MRSA in the presence of 4% bovine serum albumin (MRSA ATCC 33592) [mg/L] | MIC MSSE (MSSE 81388 CANWARD 2008) [mg/L] | MIC MSSE in the presence of 4% bovine serum albumin (MSSE 81388 CANWARD 2008) [mg/L] | MIC MRSE (MRSE CAN-ICU 61589) [mg/L] | MIC MRSE in the presence of 4% bovine serum albumin (MRSE CAN-ICU 61589) [mg/L] | MIC E. faecalis (E. faecalis ATCC 29212) [mg/L] | MIC E. faecalis in the presence of 4% bovine serum albumin (E. faecalis ATCC 29212) [mg/L] | MIC S.pneumoniae (S.pneumoniae ATCC 49619) [mg/L] | MIC S.pneumoniae in the presence of 4% bovine serum albumin (S.pneumoniae ATCC 49619) [mg/L] | MIC P.aeruginosa (P.aeruginosa ATCC 27853) [mg/L] | MIC P.aeruginosa in the presence of 4% bovine serum albumin (P.aeruginosa ATCC 27853) [mg/L] | MIC P.aeruginosa [1] [mg/L] | MIC P.aeruginosa in the presence of 4% bovine serum albumin [1] [mg/L] | MIC S. maltophilia [2] [mg/L] | MIC S. maltophilia in the presence of 4% bovine serum albumin [2] [mg/L] | MIC A. baumannii [3] [mg/L] | MIC A. baumannii in the presence of 4% bovine serum albumin [3] [mg/L] | further results
1 | CCCCCCCCCCCCCCCCCCCC(=O)N(CCCCNC(=N)N)CC(=O)NCC(=O)N(CCCCNC(=N)N)CC(N)=O [C20-NhargGNharg] | 16 (≈ 22.6 µM) | 512 | 16 (≈ 22.6 µM) | 512 | 8 (≈ 11.3 µM) | 256 | 8 (≈ 11.3 µM) | 256 | 16 (≈ 22.6 µM) | 512 | 256 (≈ 361 µM) | 64 | 512 (≈ 722 µM) | >512 | 256 (≈ 361 µM) | >512 | 256 (≈ 361 µM) | >512 | 128 (≈ 181 µM) | >512 | MIC K.pneumoniae (K.pneumoniae ATCC 13883): 128 mg/L (≈ 181 µM); MIC K.pneumoniae in the presence of 4% bovine serum albumin (K.pneumoniae ATCC 13883): 512 mg/L; Percent haemolysis at 100µg/mL of compound (ovine erythrocytes): 71.87%; MIC E.coli (E.coli ATCC 25922): 256 mg/L (≈ 361 µM); MIC E.coli in the presence of 4% bovine serum albumin (E.coli ATCC 25922): 512 mg/L; MIC E.coli (E.coli CAN-ICU 61714): 256 mg/L (≈ 361 µM); MIC E.coli in the presence of 4% bovine serum albumin (E.coli CAN-ICU 61714): >512 mg/L; MIC E.coli (E.coli CAN-ICU 63074): 256 mg/L (≈ 361 µM); MIC E.coli in the presence of 4% bovine serum albumin (E.coli CAN-ICU 63074): 512 mg/L; MIC E. faecium (E. faecium ATCC 27270): 16 mg/L (≈ 22.6 µM); MIC E. faecium in the presence of 4% bovine serum albumin (E. faecium ATCC 27270): 256 mg/L
2 | CCCCCCCCCCCCCCCCCCCC(=O)N(CCCCN)CC(=O)NCC(=O)N(CCCCN)CC(N)=O [C20-NlysGNlys] (Arachidoyl-[Nlys]-Gly-[Nlys]-NH2) | 8 (≈ 12.8 µM) | 512 | 16 (≈ 25.6 µM) | 512 | 8 (≈ 12.8 µM) | 256 | 8 (≈ 12.8 µM) | 512 | 16 (≈ 25.6 µM) | 512 | 128 (≈ 205 µM) | 512 | 256 (≈ 410 µM) | >512 | 256 (≈ 410 µM) | >512 | 128 (≈ 205 µM) | >512 | 128 (≈ 205 µM) | >512 | MIC K.pneumoniae (K.pneumoniae ATCC 13883): 128 mg/L (≈ 205 µM); MIC K.pneumoniae in the presence of 4% bovine serum albumin (K.pneumoniae ATCC 13883): >512 mg/L; Percent haemolysis at 100µg/mL of compound (ovine erythrocytes): 33.51%; MIC E.coli (E.coli ATCC 25922): 256 mg/L (≈ 410 µM); MIC E.coli in the presence of 4% bovine serum albumin (E.coli ATCC 25922): >512 mg/L; MIC E.coli (E.coli CAN-ICU 61714): 256 mg/L (≈ 410 µM); MIC E.coli in the presence of 4% bovine serum albumin (E.coli CAN-ICU 61714): >512 mg/L; MIC E.coli (E.coli CAN-ICU 63074): 128 mg/L (≈ 205 µM); MIC E.coli in the presence of 4% bovine serum albumin (E.coli CAN-ICU 63074): >512 mg/L; MIC E. faecium (E. faecium ATCC 27270): 16 mg/L (≈ 25.6 µM); MIC E. faecium in the presence of 4% bovine serum albumin (E. faecium ATCC 27270): 512 mg/L
